Laboratory results reported in paper PMC8997913, “Lichen Secondary Metabolites Inhibit the Wnt/β-Catenin Pathway in Glioblastoma Cells and Improve the Anticancer Effects of Temozolomide” (Cells, 2022).

What was measured:
T98G cells [1] = experiment: MTT test, T98G; format: cell-based; conditions: Homo sapiens, 48 h, three independent experiments, read-out: IC50 [uM] ± SEM T98G
Procedure: (§1) Three human GBM cell lines were used in this study, i.e., A-172 (ATCC-CRL-1620), T98G (92090213), and U-138 MG (ATCC-HTB-16). The A-172 and U-138 MG cell lines were purchased from the American Type Culture Collection (ATCC), whereas the T98G cell line was obtained from the European Collection of Authenticated Cell Cultures (ECACC). It has been confirmed by us that O^6-methylguanine-DNA methyltransferase (MGMT), the key factor determining the response to alkylating agents, such as TMZ, is expressed in T98G and U-138 MG cells, whereas in A-172 the expression of MGMT is silenced by promoter methylation. Therefore, the cell lines differ in terms of TMZ sensitivity; A-172 is regarded as TMZ sensitive, whereas T98G and U-138 MG are TMZ resistant.
(§2) The cells were grown as monolayers (2D cell culture) in the recommended media: A-172 were grown in the ATCC-formulated DMEM (Merck, Darmstadt, Germany), whereas T98G and U-138 MG cell lines were grown in the ATCC-formulated EMEM (Merck, Darmstadt, Germany). These media were supplemented with FBS (Biowest, Nuaillé, France) to a final concentration of 10%, as well as antibiotics (penicillin and streptomycin) (Merck, Darmstadt, Germany) to the final concentrations of 1%. For the experiments, the amount of FBS was reduced to 5%. The medium for the T98G cell line was supplemented with 2 mM glutamine, 1% nonessential amino acids, and 1% sodium pyruvate (all purchased from Merck, Darmstadt, Germany).
(§3) In order to analyze the cytotoxicity of the analyzed lichen secondary metabolites, as well as to establish the appropriate concentrations for further analysis (allowing the survival of >70% of cells), we performed the MTT test. The procedure of the test was described previously. Briefly, the cells (10,000 cells per well) were seeded on the 96-well plates and left for 24 h. Afterwards, the analyzed compounds in the concentration range of 1 µM up to 100 µM were added to the cells and left for 48 h incubation. DMSO treated cells served as control. After the above-mentioned time, the cells were washed twice with warm PBS and incubated for 3 h in the presence of a fresh medium containing MTT salt (0.5 mg/mL). Then the formazan crystals were dissolved in acidic isopropanol. The absorbance was measured at 570 and 690 nm on a Tecan Infinite M200 microplate reader (Grödig, Austria). The experiments were repeated at least three times.

A-172 cells = experiment: MTT test, A-172; format: cell-based, human; conditions: for number of living cells: A-172, 1–100 µM; for IC50: A 172, 48 h, three independent experiments, read-out: IC50 [uM] ± SEM A-172
Procedure: as §1, §2, §3

[2] = system: Wnt/β-catenin pathway target genes in U-138 MG cells; experiment: qPCR of β-catenin and Wnt target genes, U-138 MG; format: cell-based, human; conditions: 48 h; for expression of the Wnt target genes: co-treatment with TMZ 100 µM
Procedure: (§4) Based on the MTT test, the lichen secondary metabolite concentrations allowing the survival of more than 70% of cells were chosen for the subsequent experiments. The compounds were added as follows: A-172 cells—atranorin 25 µM, caperatic acid 50 µM, physodic acid 25 µM, squamatic acid 25 µM, salazinic acid 50 µM, and lecanoric acid 100 µM; T98G cells—atranorin 50 µM, caperatic acid 100 µM, physodic acid 25 µM, squamatic acid 50 µM, salazinic acid 100 µM, and lecanoric acid 100 µM; U-138 MG cells—atranorin 25 µM, caperatic acid 50 µM, physodic acid 25 µM, squamatic acid 50 µM, salazinic acid 50 µM, and lecanoric acid 100 µM. As far as the TMZ treatment is concerned, it was added in the concentrations depending on the MGMT expression and methylation status, i.e., TMZ 30 µM was added to the A-172 cell line, and TMZ 100 µM was added to both the T98G and U-138 MG cell lines. In the case of the 2D culture, the cells were treated with the compounds 24 h after seeding, whereas, in regard to 3D culture, 5 days were needed to form spheroids. All subsequent analyses were performed 48 h after treatment.
(§5) The Universal RNA Purification Kit (EURx, Gdańsk, Poland) was used for total RNA isolation from the A-172, T98G, and U-138 MG cells, and the Revert-Aid First Strand cDNA Synthesis kit (Fermentas, Burlington, ON, Canada) was chosen for cDNA synthesis. Quantitative real-time PCR (qPCR) was performed using Hot FIREPol EvaGreen qPCR Mix Plus (Solis Biodyne, Tartu, Estonia) and LightCycler 96 (Roche Diagnostics GmbH, Mannheim, Germany). Primer sequences were previously published and their synthesis was performed at the Institute of Biochemistry and Biophysics, Warsaw, Poland. The protocol started with 15 min enzyme activation at 95 °C, followed by 40 cycles of 95 °C for 15 s; appropriate annealing temperature for 20 s; 72 °C for 40 s and the final elongation at 72 °C for 5 min. Melting curve analysis was used to confirm the generation of a single amplification product. TATA box-binding protein (TBP), a component of the DNA-binding protein complex TFIID, served as the endogenous RNA control. The results were expressed as N-fold differences in the gene expression relative to the TBP gene. The ΔΔCt method was used for fold-change calculation. All samples were analyzed in triplicate, and the reaction was repeated at least twice.

T98G cells [3] = experiment: Cell cycle distribution, flow cytometry, T98G; format: cell-based, human; conditions: 48 h
Procedure: as §4
The Muse Cell Cycle Kit and the Muse Cell Cycle Software (both Merck, Darmstadt, Germany) were used to quantitatively measure the percentage of cells in the G0/G1, S, and G2/M phases of the cell cycle. The assay utilizes the nuclear DNA intercalating stain propidium iodide and RNAse A in a formulation. Propiodium iodide discriminates cells at different stages of the cell cycle, based on differential DNA content, while the presence of RNAse increases the specificity of DNA staining. Briefly, the cells were seeded on 6-well plates (100,000 cells per well) and incubated for 24 h. Afterward, the lichen secondary metabolites were added to the concentrations chosen based on the MTT test, allowing >70% of cell survival. 0.5% DMSO and 100 nM topotecan were used as negative and positive controls, respectively. The analysis was performed after a 48 h incubation with lichen secondary metabolites and started with washing the cells with PBS, followed by cell fixation with ice-cold ethanol and overnight incubation at −20 °C. Following steps included cell re-washing with PBS, then a 30 min incubation in the dark with propiodium iodide-RNAse A formulation, and a final analysis on Muse™ Cell Analyzer (Merck, Darmstadt, Germany).

[4] = system: Wnt/β-catenin pathway target genes in T98G cells; experiment: qPCR of β-catenin and Wnt target genes, T98G; format: cell-based, human; conditions: 48 h
Procedure: as §4, §5

[5] = mRNA vs DMSO control, single agent
[6] = mRNA vs DMSO control, single agent, TMZ 100 µM

Row | Structure (SMILES) | IC50 (T98G cells [1]) [µM] | number of living cells (A-172 cells; 48 h) | IC50 (A-172 cells; Homo sapiens) [µM] | Axin2 expression [2, 5] | number of cells in G0/G1 phases vs control (T98G cells [3]) | number of cells in S phase vs control (T98G cells [3]) | c-MYC expression [4, 5] | expression of the Wnt target genes [2] | NEDD9 expression [4, 5] | Axin2 expression ([4]; co-treatment with TMZ 100 µM) | CCND1 expression ([4]; co-treatment with TMZ 100 µM) | c-MYC expression ([4]; co-treatment with TMZ 100 µM) | β-catenin (CTNNB1) expression ([4]; co-treatment with TMZ 100 µM) | further results
1 | COC(=O)c1c(C)cc(OC(=O)c2c(C)cc(O)c(C=O)c2O)c(C)c1O [Atranorin] | 98.6 ± 7.8 | reduced the number of living cells in the whole analyzed concentration range | 90.9 ± 3.7 | downregulated | slightly increased | reduced | trend towards downregulation, but with no statistical significance | – | – | – | – | – | – | –
2 | CCCCCCCCCCCCCCC(C(=O)O)C(O)(CC(=O)OC)C(=O)O (stereo not shown) [Caperatic acid] | > 100 | – | 80.1 ± 1.88 | downregulated | diminished | – | – | huge downregulatory effect | downregulated | – | – | – | – | viability at 100 µM (A-172 cells; Homo sapiens, A-172, highest tested concentration (100 µM), 48 h): 11.7 ± 5.51%; NEDD9 expression [2, 6]: downregulated
3 | Cc1cc(OC(=O)c2c(C)cc(O)cc2O)cc(O)c1C(=O)O [Lecanoric acid] | > 100 | – | > 100 | – | – | – | – | – | – | downregulated | downregulated | downregulated | downregulated | cells killed (A-172 cells; A-172, 100 µM, 48 h): ~ 30%
4 | Cc1cc(O)c(C=O)c2c1C(=O)Oc1c(CO)c(O)c3c(c1O2)C(O)OC3=O (stereo not shown) [Salazinic acid] | – | – | – | – | slightly increased | reduced | upregulated | huge downregulatory effect | – | trend toward downregulation | – | – | – | BIRC5 expression [2, 5]: diminished; CCND1 expression [2, 5]: downregulated CCND1 expression by around half; percentage of cells in G2/M phases vs control (T98G cells [3]): diminished; number of the six analyzed genes downregulated ([4]; co-treatment with TMZ 100 µM): five out of six; CCND1 expression [4, 5]: significantly upregulated; BIRC5 expression [4, 6]: downregulated
5 | COc1cc(C)c(C(=O)Oc2cc(C)c(C(=O)O)c(O)c2C)c(O)c1C(=O)O [Squamatic acid] | > 100 | reduced the number of living cells in the whole analyzed concentration range | 84.9 ± 3.62 | downregulated | – | – | trend towards downregulation, but with no statistical significance | – | downregulation | – | downregulated | downregulated | downregulated | NEDD9 expression ([4]; co-treatment with TMZ 100 µM): downregulated
